Measured values reported in ChEMBL document CHEMBL2040759, “Design, synthesis and anticancer activity of nitric oxide donating/chalcone hybrids” (2012).

Legend:
Type in all cases: functional
NCI-H226 = test: Growth inhibition of human NCI-H226 cells assessed as cell growth at 10^-5 M after 48 hrs by SRB assay; conditions: NCI-H226, 48 h, read-out: Activity
NCI-H522 = test: Growth inhibition of human NCI-H522 cells assessed as cell growth at 10^-5 M after 48 hrs by SRB assay; conditions: NCI-H522, 48 h, read-out: Activity
SK-MEL-28 [1] = test: Growth inhibition of human SK-MEL-28 cells assessed as cell growth at 10^-5 M after 48 hrs by SRB assay; conditions: SK-MEL-28, 48 h, read-out: Activity
SK-OV-3 [2] = test: Growth inhibition of human SKOV3 cells assessed as cell growth at 10^-5 M after 48 hrs by SRB assay; conditions: SK-OV-3, 48 h, read-out: Activity
K562 = test: Growth inhibition of human K562 cells assessed as cell growth at 10^-5 M after 48 hrs by SRB assay; conditions: K562, 48 h, read-out: Activity
MDA-MB-468 = test: Growth inhibition of human MDA-MB-468 cells assessed as cell growth at 10^-5 M after 48 hrs by SRB assay; conditions: MDA-MB-468, 48 h, read-out: Activity
NCI-H460 = test: Growth inhibition of human NCI-H460 cells assessed as cell growth at 10^-5 M after 48 hrs by SRB assay; conditions: NCI-H460, 48 h, read-out: Activity
SNB-19 = test: Growth inhibition of human SNB19 cells assessed as cell growth at 10^-5 M after 48 hrs by SRB assay; conditions: SNB-19, 48 h, read-out: Activity
SN12C = test: Growth inhibition of human SN12C cells assessed as cell growth at 10^-5 M after 48 hrs by SRB assay; conditions: read-out: Activity
A549 = test: Growth inhibition of human A549/ATCC cells assessed as cell growth at 10^-5 M after 48 hrs by SRB assay; conditions: A549, 48 h, read-out: Activity
SK-MEL-5 = test: Growth inhibition of human SK-MEL-5 cells assessed as cell growth at 10^-5 M after 48 hrs by SRB assay; conditions: SK-MEL-5, 48 h, read-out: Activity
UO-31 = test: Growth inhibition of human UO31 cells assessed as cell growth at 10^-5 M after 48 hrs by SRB assay; conditions: UO-31, 48 h, read-out: Activity
CAKI-1 = test: Growth inhibition of human Caki1 cells assessed as cell growth at 10^-5 M after 48 hrs by SRB assay; conditions: CAKI-1, 48 h, read-out: Activity
NCI-H322M [3] = test: Growth inhibition of human NCI-H322M cells assessed as cell growth at 10^-5 M after 48 hrs by SRB assay; conditions: read-out: Activity
HOP-62 = test: Growth inhibition of human HOP62 cells assessed as cell growth at 10^-5 M after 48 hrs by SRB assay; conditions: HOP-62, 48 h, read-out: Activity
NCI-H23 = test: Growth inhibition of human NCI-H23 cells assessed as cell growth at 10^-5 M after 48 hrs by SRB assay; conditions: NCI-H23, 48 h, read-out: Activity
LOX IMVI [4] = test: Growth inhibition of human LOXIMVI cells assessed as cell growth at 10^-5 M after 48 hrs by SRB assay; conditions: read-out: Activity
HT-29 = test: Growth inhibition of human HT-29 cells assessed as cell growth at 10^-5 M after 48 hrs by SRB assay; conditions: HT-29, 48 h, read-out: Activity
HOP-92 = test: Growth inhibition of human HOP92 cells assessed as cell growth at 10^-5 M after 48 hrs by SRB assay; conditions: HOP-92, 48 h, read-out: Activity
RXF 393 = test: Growth inhibition of human RXF393 cells after 48 hrs by SRB assay; conditions: RXF 393, 48 h
MDA-MB-231 = test: Growth inhibition of human MDA-MB-231 cells after 48 hrs by SRB assay; conditions: MDA-MB-231, 48 h
BT-549 = test: Growth inhibition of human BT549 cells after 48 hrs by SRB assay; conditions: BT-549, 48 h
HCT-15 = test: Growth inhibition of human HCT15 cells after 48 hrs by SRB assay; conditions: HCT-15, 48 h
SK-MEL-28 [5] = test: Growth inhibition of human SK-MEL-28 cells after 48 hrs by SRB assay; conditions: SK-MEL-28, 48 h
[6] = Growth inhibition of human RPMI18226 cells after 48 hrs by SRB assay; conditions: RPMI18226, 48 h
HL-60(TB) = test: Growth inhibition of human HL-60(TB) cells after 48 hrs by SRB assay; conditions: HL-60, 48 h
Malme-3M = test: Growth inhibition of human MALME-3M cells after 48 hrs by SRB assay
SK-OV-3 [7] = test: Growth inhibition of human SKOV3 cells after 48 hrs by SRB assay; conditions: SK-OV-3, 48 h
ACHN = test: Growth inhibition of human ACHN cells after 48 hrs by SRB assay
LOX IMVI [8] = test: Growth inhibition of human LOXIMVI cells after 48 hrs by SRB assay
TK-10 = test: Growth inhibition of human TK10 cells after 48 hrs by SRB assay; conditions: TK-10, 48 h
UACC-257 = test: Growth inhibition of human UACC257 cells after 48 hrs by SRB assay; conditions: UACC-257, 48 h
MCF7 = test: Growth inhibition of human MCF7 cells after 48 hrs by SRB assay; conditions: MCF7, 48 h
NCI-H322M [9] = test: Growth inhibition of human NCI-H322M cells after 48 hrs by SRB assay
U-251 = test: Growth inhibition of human U251 cells after 48 hrs by SRB assay; conditions: U-251, 48 h
[10] = read-out: LC50 (the source's name)

O=C(CO[N+](=O)[O-])Nc1ccc(C(=O)/C=C/c2ccc3c(c2)OCO3)cc1
growth at 10 µM (NCI-H226): 107%
growth at 10 µM (NCI-H522): 97.6%
growth at 10 µM (SK-MEL-28 [1]): 104%
growth at 10 µM (SK-OV-3 [2]): 111%
growth at 10 µM (K562): 59.1%
growth at 10 µM (MDA-MB-468): 91.9%
growth at 10 µM (NCI-H460): 108%
growth at 10 µM (SNB-19): 104%
growth at 10 µM (SN12C): 95.4%
growth at 10 µM (A549): 88.9%
growth at 10 µM (SK-MEL-5): 90.8%
growth at 10 µM (UO-31): 77.1%
growth at 10 µM (CAKI-1): 93%
growth at 10 µM (NCI-H322M [3]): 108%
growth at 10 µM (HOP-62): 112%
growth at 10 µM (NCI-H23): 58.1%
growth at 10 µM (LOX IMVI [4]): 21.5%
growth at 10 µM (HT-29): 30.1%
growth at 10 µM (HOP-92): 77.3%

O=C(CO[N+](=O)[O-])Nc1ccc(C(=O)/C=C/c2ccc(Cl)cc2)cc1
growth at 10 µM (NCI-H226): 81.7%
growth at 10 µM (NCI-H522): 38.7%
growth at 10 µM (SK-MEL-28 [1]): 86.8%
growth at 10 µM (SK-OV-3 [2]): 89.3%
GI50 (RXF 393): 4.82 µM
TGI (RXF 393): 17.8 µM
CC50 (RXF 393; [10]): 48.5 µM
GI50 (MDA-MB-231): 5.39 µM
TGI (MDA-MB-231): 21.2 µM
CC50 (MDA-MB-231; [10]): 62 µM
GI50 (BT-549): 1.86 µM
TGI (BT-549): 5 µM
CC50 (BT-549; [10]): > 100 µM
growth at 10 µM (MDA-MB-468): 48.7%
growth at 10 µM (NCI-H460): 84.9%
growth at 10 µM (SNB-19): 87.8%
growth at 10 µM (SN12C): 46.8%
GI50 (HCT-15): 2.03 µM
TGI (HCT-15): 6.53 µM
CC50 (HCT-15; [10]): 59.7 µM
growth at 10 µM (A549): 67.6%
GI50 (SK-MEL-28 [5]): 4.96 µM
TGI (SK-MEL-28 [5]): 18.1 µM
CC50 (SK-MEL-28 [5]; [10]): 49.5 µM
GI50 [6]: 1.41 µM
TGI [6]: 8.36 µM
CC50 [6, 10]: > 100 µM
growth at 10 µM (SK-MEL-5): 54.5%
growth at 10 µM (UO-31): 31.9%
GI50 (HL-60(TB)): 3.59 µM
TGI (HL-60(TB)): > 100 µM
CC50 (HL-60(TB); [10]): > 100 µM
growth at 10 µM (CAKI-1): 74.9%
GI50 (Malme-3M): 2.13 µM
TGI (Malme-3M): 6.61 µM
CC50 (Malme-3M; [10]): 76.2 µM
growth at 10 µM (NCI-H322M [3]): 71.5%
GI50 (SK-OV-3 [7]): 10.1 µM
TGI (SK-OV-3 [7]): 65.9 µM
CC50 (SK-OV-3 [7]; [10]): > 100 µM
growth at 10 µM (HOP-62): 94.1%
GI50 (ACHN): 3.3 µM
TGI (ACHN): 17 µM
CC50 (ACHN; [10]): > 100 µM
GI50 (LOX IMVI [8]): 1.59 µM
TGI (LOX IMVI [8]): 3.51 µM
CC50 (LOX IMVI [8]; [10]): 7.74 µM
GI50 (TK-10): 8.37 µM
TGI (TK-10): 25.1 µM
CC50 (TK-10; [10]): 68.2 µM
GI50 (UACC-257): 4.33 µM
TGI (UACC-257): 15.9 µM
CC50 (UACC-257; [10]): 40.7 µM
growth at 10 µM (NCI-H23): 5.49%
growth at 10 µM (LOX IMVI [4]): -60.9%
growth at 10 µM (HT-29): -23.4%
GI50 (MCF7): 0.67 µM
TGI (MCF7): 6.44 µM
CC50 (MCF7; [10]): > 100 µM
growth at 10 µM (HOP-92): 66.8%
GI50 (NCI-H322M [9]): 10.3 µM
TGI (NCI-H322M [9]): 22.6 µM
CC50 (NCI-H322M [9]; [10]): 49.6 µM
GI50 (U-251): 1.48 µM
TGI (U-251): 3.15 µM
CC50 (U-251; [10]): 6.68 µM
